Patent US20160050935A1, “METHOD FOR CONTROLLING PARTICLE SIZE OF SILVER PARTICLES, SILVER PARTICLES, ANTIMICROBIAL AGENT CONTAINING SLIVER PARTICLES, AND USE THEREOF” (SOFSERA CORPORATION, priority 2013, published 2016)

Tested on: Escherichia coli (Gram-negative bacteria)
Experiment: Antibacterial test of silver particles-2 (bacteria count in tube 1 over time)
Assay type: cell-based
Description: A test similar to that in <5. Antibacterial test of silver particles-1> was carried out with use of Escherichia coli (Gram-negative bacteria), which is one of model organisms and by which bacteria are typified. Note that the test was carried out by a method similar to that in <5. Antibacterial test of silver particles-1>, except that a kind of the bacteria used in the test was changed. Therefore, the method of the test will not be described here, and only results of the test will be described.
FIG. 10 illustrates results of the test carried out with use of “1 mM CDT-Ag,” “5 mM CDT-Ag,” and “10 mM CDT-Ag.” More specifically, FIG. 10 illustrates results of, “0 (zero) h,” “0.5 h,” “1 (one) h,” and “2 h” after the silver particles were mixed with the bacteria, (i) taking out an LB culture medium from each of tubes 1 through 8 stored in an incubator and (ii) carrying out an operation K), that is, a result of incubating the bacteria at 37° C. for 24 hours by storing a petri dish, prepared in the operation K), in the incubator.

O=C(O)CCCCCCCCCCS [Free CDT, 10-carboxy-1-decanthiol]
bacteria count in the tube 1 (count at 0 h = 1) (0 h (set to 1 by assumption)): 1 | bacteria count in the tube 1 (count at 0 h = 1) (0.5 h after mixing): 1 | bacteria count in the tube 1 (count at 0 h = 1) (1 h after mixing): 1 | bacteria count in the tube 1 (count at 0 h = 1) (2 h after mixing): 1 | antibacterial activity (in words, from FIG. 10 and Table 3): did not have antibacterial activity
